Measured values published in article PMC9721423, “Novel benzo chromene derivatives: design, synthesis, molecular docking, cell cycle arrest, and apoptosis induction in human acute myeloid leukemia HL-60 cells” (Journal of Enzyme Inhibition and Medicinal Chemistry, 2022).
Where two headings read alike, the source gives them in different places.

What was measured:
Assay in all cases: cells
Parameters in all cases: species or system NCI-60 human tumour cell lines; NCI-60 five-dose growth inhibition screen, sulforhodamine B protein stain
786-0 = settings: Homo sapiens, 786-0, 48 h
Method: (§1) All the newly synthesised 28 compounds were selected for single-dose testing. NCI60 single-dose testing is performed in all 60 cell lines according to the reported assay (National Cancer Institute, https://dtp.cancer.gov/) (National Cancer Institute https://dtp.cancer.gov/discovery_development/nci-60/), compounds were dissolved in DMSO: glycerol […] and are stored in a −70 °C freezer. The prepared compounds were added at single concentration of 1 0^−5 M and the culture was incubated for 48 h. End point determinations were made with a protein binding dye, sulforhodamine B (SRB). The human tumour cell lines were derived from nine different cancer types: leukaemia, melanoma, lung, colon, central nervous system (CNS), ovarian, renal, prostate, and breast cancers. Dose–response curves for these compounds were created by plotting the percentage growth (PGs or % growth) against log10 of the corresponding concentration for every cell line. Three response parameters, GI50 (Median Growth Inhibitory Concentration), TGI (Total Growth Inhibitory Concentration), and LC50 (Median Lethal Concentration) were calculated[54] (National Cancer Institute, https://dtp.cancer.gov/discovery_development/nci-60/) (National Cancer Institute, https://dtp.cancer.gov/)[55] for compounds 5a and 6a. […] Furthermore, the average sensitivity of all cell lines towards the compound is termed as the full panel mean graph midpoints (MG-MID). The ratio obtained by dividing the full panel mean graph midpoints (MG-MID) concentration by the individual subpanel MG-MID concentrations (obtained as the average sensitivity of all cell lines of a particular subpanel towards the test compound) is considered a criterion for the compound selectivity towards the corresponding cell line. Ratios greater than 6 indicate high selectivity while ratios between 3 and 6 refer to moderate selectivity whereas compounds not meeting either of these criteria were rated non-selective[56].

BT-549 = settings: Homo sapiens, BT-549, 48 h
Method: as §1

CAKI-1 = settings: Homo sapiens, CAKI-1, 48 h
Method: as §1

EKVX = settings: Homo sapiens, EKVX, 48 h
Method: as §1

HCT-116 = settings: Homo sapiens, HCT-116, 48 h
Method: as §1

HOP-92 = settings: Homo sapiens, HOP-92, 48 h
Method: as §1

LOX IMVI = settings: Homo sapiens, LOX IMVI, 48 h
Method: as §1

MDA-MB-435 = settings: Homo sapiens, MDA-MB-435, 48 h
Method: as §1

NCI-H322M = settings: Homo sapiens, NCI-H322M, 48 h
Method: as §1

NCI-H460 = settings: Homo sapiens, NCI-H460, 48 h
Method: as §1

SF-268 = settings: Homo sapiens, SF-268, 48 h
Method: as §1

SF-295 = settings: Homo sapiens, SF-295, 48 h
Method: as §1

SK-MEL-28 = settings: Homo sapiens, SK-MEL-28, 48 h
Method: as §1

SK-MEL-2 = settings: Homo sapiens, SK-MEL-2, 48 h
Method: as §1

SNB-19 = settings: Homo sapiens, SNB-19, 48 h
Method: as §1

SW-620 = settings: Homo sapiens, SW-620, 48 h
Method: as §1

U251 = settings: Homo sapiens, U-251, 48 h
Method: as §1

CC(=O)NC1=C(C#N)C(c2ccccc2)c2ccc3ccccc3c2O1 (stereo not shown) [6a, N-(3-Cyano-4-phenyl-4H-benzo[h]chromen-2-yl)acetamide]
GI50 (786-0; read-out: GI50 6a): 490 nM | GI50 (BT-549; read-out: GI50 6a): 990 nM | GI50 (CAKI-1; read-out: GI50 6a): 340 nM | GI50 (EKVX; read-out: GI50 6a): 49900 nM | GI50 (HCT-116; read-out: GI50 6a): 430 nM | GI50 (HOP-92; read-out: GI50 6a): 610 nM | GI50 (LOX IMVI; read-out: GI50 6a): 600 nM | GI50 (MDA-MB-435; read-out: GI50 6a): 230 nM | GI50 (NCI-H322M; read-out: GI50 6a): 820 nM | GI50 (NCI-H460; read-out: GI50 6a): 370 nM | GI50 (SF-268; read-out: GI50 6a): 930 nM | GI50 (SF-295; read-out: GI50 6a): 330 nM | GI50 (SK-MEL-28; read-out: GI50 6a): 860 nM | GI50 (SK-MEL-2; read-out: GI50 6a): 650 nM | GI50 (SNB-19; read-out: GI50 6a): 780 nM | GI50 (SW-620; read-out: GI50 6a): 410 nM | GI50 (U251; read-out: GI50 6a): 490 nM

N=C(NO)C1=C(N)Oc2c(ccc3ccccc23)C1c1ccccc1 (stereo not shown) [5a, 2-Amino-4-phenyl-N-hydroxy-4H-benzo[h]chromene-3-carboxamidine]
GI50 (786-0; read-out: GI50 5a): 560 nM | GI50 (BT-549; read-out: GI50 5a): 1250 nM | GI50 (CAKI-1; read-out: GI50 5a): 100 nM | GI50 (EKVX; read-out: GI50 5a): 820 nM | GI50 (HCT-116; read-out: GI50 5a): 410 nM | GI50 (HOP-92; read-out: GI50 5a): 820 nM | GI50 (LOX IMVI; read-out: GI50 5a): 540 nM | GI50 (MDA-MB-435; read-out: GI50 5a): 30 nM | GI50 (NCI-H322M; read-out: GI50 5a): 660 nM | GI50 (NCI-H460; read-out: GI50 5a): 310 nM | GI50 (SF-268; read-out: GI50 5a): 1320 nM | GI50 (SF-295; read-out: GI50 5a): 300 nM | GI50 (SK-MEL-28; read-out: GI50 5a): 11800 nM | GI50 (SK-MEL-2; read-out: GI50 5a): 28700 nM | GI50 (SNB-19; read-out: GI50 5a): 490 nM | GI50 (SW-620; read-out: GI50 5a): 170 nM | GI50 (U251; read-out: GI50 5a): 380 nM
